Experiments:
Schistosoma mansoni [1] = assay: Antischistosomicidal activity against Schistosoma mansoni egyptian strain assessed as worm mortality at 5 ug/ml after 5 days by stereomicroscopy; assay type: functional; conditions: 120 h
Schistosoma mansoni [2] = assay: Antischistosomicidal activity against Schistosoma mansoni egyptian strain assessed as worm mortality after 5 days by stereomicroscopy; assay type: functional, organism-based; conditions: for IC90: Schistosoma mansoni, egyptian strain, 120 h

Compound | mortality at 5 µg/mL (Schistosoma mansoni [1]) [%] | IC50 (Schistosoma mansoni [2]) [uM/ml] | IC90 (Schistosoma mansoni [2]) [µM]
Cn1c2nc3ccccc3c-2c(NCCCO)c2cc(Br)ccc21 | 66.7 | – | –
CCN(CC)CCCC(C)Nc1c2c3ccccc3nc-2n(C)c2ccc(Cl)cc12 (stereo not drawn) | 100 | 11.74 | 16.8
CN1CCN(c2c3c4ccccc4nc-3n(C)c3ccc(C(F)(F)F)cc23)CC1 | 100 | 4.61 | 6.05
Cn1c2nc3ccccc3c-2c(NCCCN2CCN(CCCNc3c4c5ccccc5nc-4n(C)c4ccc(C(F)(F)F)cc34)CC2)c2cc(C(F)(F)F)ccc21 | 8.3 | – | –
Clc1ccc2nc3[nH]c4ccccc4c3c(Cl)c2c1 | 0 | – | –
Cn1c2nc3ccccc3c-2c(Nc2ccc(CCO)cc2)c2ccccc21 | 58.3 | – | –
Cn1c2nc3ccccc3c-2c(Cl)c2cc(C(F)(F)F)ccc21 | 91.7 | – | –
Cn1c2nc3ccccc3c-2cc2ccccc21 [NEOCRYPTOLEPINE] | 5 | – | –
Cn1c2nc3ccccc3c-2c(N2CCN(CCO)CC2)c2cc(C(F)(F)F)ccc21 | 25 | – | –
Cn1c2nc3ccccc3c-2c(Nc2ccccc2)c2ccccc21 | 100 | 3.07 | 4.3
Cn1c2nc3ccccc3c-2c(N2CCOCC2)c2ccccc21 | 66.7 | – | –
Cn1c2nc3ccccc3c-2c(Cl)c2cc(Br)ccc21 | 25 | – | –
Cn1c2nc3ccccc3c-2c(NCCc2c[nH]c3ccccc23)c2ccccc21 | 100 | 2.7 | 3.95
O=C(C1CCCCC1)N1CC(=O)N2CCc3ccccc3C2C1 (stereo not drawn) [PRAZIQUANTEL] | 100 | 0.21 | 0.37
Cn1c2nc3ccccc3c-2c(Nc2ccc(C(F)(F)F)cc2)c2ccccc21 | 100 | 3.73 | 4.81
CN1CCN(c2c3c4ccccc4nc-3n(C)c3ccccc23)CC1 | 0 | – | –
Cn1c2nc3ccccc3c-2c(NCCCN2CCN(CCCNc3c4c5ccccc5nc-4n(C)c4ccc(Cl)cc34)CC2)c2cc(Cl)ccc21 | 100 | 3.42 | 5.1
Cn1c2nc3ccccc3c-2c(Nc2ccc(CCO)cc2)c2cc(Br)ccc21 | 91.7 | – | –
Cn1c2nc3ccccc3c-2c(Cl)c2ccccc21 [11-CHLORONEOCRYPTOLEPINE] | 75 | – | –
